Common to all, as to format: in vivo
For assay [1], the system named is Alopecurus myosuroides (ALOMY). As to the kind of experiment: Pre-emergence biological efficacy (percentage damage). As to conditions: Alopecurus myosuroides, 312 h, dose 1,000 g/ha, evaluated after 13 days, 100=total damage, 0=no damage. As for the experimental part:
(§1) Seeds of Alopecurus myosuroides (ALOMY), Setaria faberi (SETFA), Echinochloa crus-galli (ECHCG), Solanum nigrum (SOLNI), Amaranthus retoflexus (AMARE) and Ipomea hederaceae (IPOHE) were sown in standard soil in pots. After cultivation for one day under controlled conditions in a glasshouse (at 24/16° C., day/night; 14 hours light; 65% humidity), the plants were sprayed with an aqueous spray solution derived from the formulation of the technical active ingredient in acetone/water (50:50) solution containing 0.5% Tween 20 (polyoxyethylene sorbitan monolaurate, CAS RN 9005-64-5) to give a final dose of 250 or 1000 g/ha of test compound. The test plants were then grown under controlled conditions in the glasshouse (at 24/16° C., day/night; 14 hours light; 65% humidity) and watered twice daily. After 13 days the test was evaluated (100=total damage to plant; 0=no damage to plant).

The test system of assay [2] is Amaranthus retoflexus (AMARE). Described as above. As to conditions: Amaranthus retroflexus, 312 h, dose 1,000 g/ha, evaluated after 13 days, 100=total damage, 0=no damage. As for the experimental part: as §1
The subject of assay [3] is Echinochloa crus-galli (ECHCG). Described as above. The note with it: Echinochloa crus-galli, 312 h, dose 1,000 g/ha, evaluated after 13 days, 100=total damage, 0=no damage. As to the method: as §1
For assay [4], the system named is Ipomea hederaceae (IPOHE). The assay is described as above. The note with it: Ipomoea hederacea, 312 h, dose 1,000 g/ha, evaluated after 13 days, 100=total damage, 0=no damage. As to the method:
as §1

Assay [5] relates to Setaria faberi (SETFA). The description is as above. As to conditions: Setaria faberi, 312 h, dose 1,000 g/ha, evaluated after 13 days, 100=total damage, 0=no damage. As for the experimental part: as §1
Assay [6] deals with Solanum nigrum (SOLNI). The assay is described as above. The note with it: Solanum nigrum, 312 h, dose 1,000 g/ha, evaluated after 13 days, 100=total damage, 0=no damage. As for the experimental part:
as §1

Assay [7] concerns Alopecurus myosuroides (ALOMY). As to the kind of experiment: Post-emergence biological efficacy (percentage damage). The note with it: Alopecurus myosuroides, 312 h, dose 1,000 g/ha, evaluated after 13 days, 100=total damage, 0=no damage. As for the experimental part: as §1, with “for 8 days” for “for one day”, “grown on” for “grown”, “in a” for “in the”
Assay [8] concerns Amaranthus retoflexus (AMARE). The assay is described as above. As to conditions: Amaranthus retroflexus, 312 h, dose 1,000 g/ha, evaluated after 13 days, 100=total damage, 0=no damage. As for the experimental part:
as §1, with “for 8 days” for “for one day”, “grown on” for “grown”, “in a” for “in the”

In assay [9] the test system is Echinochloa crus-galli (ECHCG). The assay is described as above. The note with it: Echinochloa crus-galli, 312 h, dose 1,000 g/ha, evaluated after 13 days, 100=total damage, 0=no damage. As for the experimental part: as §1, with “for 8 days” for “for one day”, “grown on” for “grown”, “in a” for “in the”
Assay [10] deals with Ipomea hederaceae (IPOHE). Described as above. The note with it: Ipomoea hederacea, 312 h, dose 1,000 g/ha, evaluated after 13 days, 100=total damage, 0=no damage. As for the experimental part: as §1, with “for 8 days” for “for one day”, “grown on” for “grown”, “in a” for “in the”
Assay [11] has as its system Setaria faberi (SETFA). The description is as above. As to conditions: Setaria faberi, 312 h, dose 1,000 g/ha, evaluated after 13 days, 100=total damage, 0=no damage. As for the experimental part: as §1, with “for 8 days” for “for one day”, “grown on” for “grown”, “in a” for “in the”
Assay [12] relates to Solanum nigrum (SOLNI). The description is as above. The note with it: Solanum nigrum, 312 h, dose 1,000 g/ha, evaluated after 13 days, 100=total damage, 0=no damage. As to the method: as §1, with “for 8 days” for “for one day”, “grown on” for “grown”, “in a” for “in the”

This note sets out measurements from patent US20120053053A1, “PYRIMIDINE DERIVATIVES AND THEIR USE AS HERBICIDES” (SYNGENTA CROP PROTECTION, LLC, priority 2009, published 2012).

What is called pest or weed control is the degree to which the test organism was suppressed or injured, in per cent. Lower therefore signals weak suppression.

Turning to `COC(=O)COc1nc(C2CC2)nc(Cl)c1C` [Compound 2-376, 4-chloro-2-cyclopropyl-6-methoxycarbonylmethoxy-5-methylpyrimidine], the pest or weed control at 1000 g/ha in [1] turned out to be 0%; in assay [2], 30%; in assay [3], 0%; in assay [4] it was 0%; in the assay on Setaria faberi (SETFA) [5], 0%; in the assay with Solanum nigrum (SOLNI) [6], 0%. For the same molecule, the pest or weed control at 1000 g/ha in assay [7] came to 0%; in assay [8], 20%; in assay [9], 0%; in [10], 50%; in the assay with Setaria faberi (SETFA) [11] it was 20%; with Solanum nigrum (SOLNI) [12] it was 30%.
On to `Cc1c(OCC(=O)OC(C)(C)C)nc(C2CC2)nc1OCC(=O)OC(C)(C)C` [Compound 2-389, 4,6-bis(t-butoxy-carbonyl-methoxy)-2-cyclo-propyl-5-methyl-pyrimidine], for which the pest or weed control at 1000 g/ha stood at 0% in [1]; 20% in [2]; 0% in assay [3]; 0% in assay [4]; 0% in the assay with Setaria faberi (SETFA) [5]; 0% in the assay with Solanum nigrum (SOLNI) [6]. Further, the pest or weed control at 1000 g/ha amounted to 0% in assay [7]; 0% in assay [8]; 0% in [9]; 20% in [10]; 0% with Setaria faberi (SETFA) [11]; 30% in the assay on Solanum nigrum (SOLNI) [12].
Regarding `C=Cc1c(OC)nc(C2CC2)nc1C(=O)OC` [Compound 2-398, 2-Cyclopropyl-5-ethenyl-4-methoxy-6-methoxy-carbonyl-pyrimidine], the pest or weed control at 1000 g/ha was found to be 0% in assay [1]; 90% in assay [2]; 0% in assay [3]; 100% in assay [4]; 0% in the assay on Setaria faberi (SETFA) [5]; 90% in the assay with Solanum nigrum (SOLNI) [6]. Besides, the pest or weed control at 1000 g/ha in assay [7] stood at 0%; in assay [8], 90%; in [9], 0%; in assay [10] it was 90%; with Setaria faberi (SETFA) [11], 0%; in the assay on Solanum nigrum (SOLNI) [12], 80%.
Take `C=Cc1c(N=[N+]=[N-])nc(C2CC2)nc1C(=O)OC` [Compound 2-399, 4-azido-2-cyclopropyl-5-ethenyl-6-methoxycarbonyl-pyrimidine]: the pest or weed control at 1000 g/ha (in assay [1]; in [2]; in assay [3]; in assay [4]; in the assay on Setaria faberi (SETFA) [5]; in the assay on Solanum nigrum (SOLNI) [6]) was 0% each time. The pest or weed control at 1000 g/ha in assay [7] is 0%; in [8], 20%; in [9] it was 0%; in assay [10], 20%; with Setaria faberi (SETFA) [11], 0%; in the assay on Solanum nigrum (SOLNI) [12], 20%.
Consider `C=Cc1c(SC)nc(C2CC2)nc1C(=O)OC` [Compound 2-400, 2-cyclopropyl-5-ethenyl-6-methoxycarbonyl-4-methylthio-pyrimidine], for which the pest or weed control at 1000 g/ha worked out at 0% in assay [1]; 90% in [2]; 0% in assay [3]; 60% in assay [4]; 0% in the assay on Setaria faberi (SETFA) [5]; 100% in the assay on Solanum nigrum (SOLNI) [6]. Further, the pest or weed control at 1000 g/ha in [7] was found to be 0%; in assay [8], 80%; in assay [9] it was 0%; in [10], 60%; with Setaria faberi (SETFA) [11] it was 0%; in the assay on Solanum nigrum (SOLNI) [12], 100%.
In the case of `C=Cc1c(C(=O)OC)nc(C2CC2)nc1S(C)(=O)=O` [Compound 2-402, 2-cyclopropyl-5-ethenyl-6-methoxycarbonyl-4-methylsulphonyl-pyrimidine], the pest or weed control at 1000 g/ha (in assay [1]; in [2]; in assay [3]; in assay [4]; in the assay with Setaria faberi (SETFA) [5]; in the assay on Solanum nigrum (SOLNI) [6]) was 0% each time. Further, the pest or weed control at 1000 g/ha in assay [7] was 0%; in assay [8], 0%; in assay [9], 0%; in assay [10], 50%; with Setaria faberi (SETFA) [11], 0%; with Solanum nigrum (SOLNI) [12], 20%.
Regarding `COC(=O)c1nc(-c2ccc(Cl)cc2)nc(N)c1C` [Compound 5-41], the pest or weed control at 1000 g/ha came to 20% in assay [1]; 100% in assay [2]; 30% in [3]; 10% in [4]; 30% in the assay with Setaria faberi (SETFA) [5]; 30% with Solanum nigrum (SOLNI) [6]. Further, the pest or weed control at 1000 g/ha in assay [7] came to 30%; in assay [8] it was 100%; in [9], 20%; in assay [10] it was 40%; in the assay on Setaria faberi (SETFA) [11] it was 30%; in the assay on Solanum nigrum (SOLNI) [12] it was 70%.
In the case of `C=Cc1c(N)nc(-c2ccc(Cl)cc2)nc1C(=O)OC` [Compound 5-61, 4-Amino-2-(4-chlorophenyl)-5-ethenyl-6-methoxycarbonyl-pyrimidine], the pest or weed control at 1000 g/ha in assay [1] was determined as 60%; in [2] it was 100%; in assay [3] it was 60%; in [4], 90%; with Setaria faberi (SETFA) [5], 60%; with Solanum nigrum (SOLNI) [6], 90%. Moreover, the pest or weed control at 1000 g/ha in [7] amounted to 80%; in assay [8], 100%; in assay [9] it was 90%; in [10], 100%; with Setaria faberi (SETFA) [11], 100%; in the assay with Solanum nigrum (SOLNI) [12], 100%.
With `C=Cc1c(N)nc(-c2ccc(Br)cc2)nc1C(=O)OC` [Compound 6-61, 4-Amino-2-(4-bromophenyl)-5-ethenyl-6-methoxycarbonyl-pyrimidine], the pest or weed control at 1000 g/ha was found to be 70% in [1]; 100% in assay [2]; 50% in [3]; 80% in assay [4]; 30% in the assay on Setaria faberi (SETFA) [5]; 90% in the assay on Solanum nigrum (SOLNI) [6]. The pest or weed control at 1000 g/ha is 60% in assay [7]; 100% in assay [8]; 50% in assay [9]; 70% in assay [10]; 30% in the assay with Setaria faberi (SETFA) [11]; 90% with Solanum nigrum (SOLNI) [12].
Regarding `C=Cc1c(N)nc(-c2ccc(Cl)c(Cl)c2)nc1C(=O)OC` [Compound 9-61, 4-Amino-2-(3,4-dichlorophenyl)-5-ethenyl-6-methoxycarbonyl-pyrimidine], the pest or weed control at 1000 g/ha in assay [1] is 0%; in [2], 90%; in assay [3], 30%; in assay [4], 10%; in the assay with Setaria faberi (SETFA) [5], 0%; in the assay on Solanum nigrum (SOLNI) [6] it was 70%. The pest or weed control at 1000 g/ha was determined as 20% in [7]; 100% in [8]; 20% in assay [9]; 70% in [10]; 0% in the assay with Setaria faberi (SETFA) [11]; 90% in the assay with Solanum nigrum (SOLNI) [12].
